Source: the supplement of paper PMC11061612

Legend:
Experiment in all cases: combination Emax (second highest fraction inhibited in the dose matrix, 72 h); higher = more inhibition; extreme values may be limits of the assay
[1] = test system: COR-L311 (Small Cell Lung Carcinoma)
Outline: (§1)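 After 24 hours at 37°C and 5% CO2 in 1536-well plates, cells in DMEM/F12 or RPMI plus 10% FBS received two-drug dose matrices for 72 hours. Viability came from CellTiter-Glo 2.0 luminescence and was scaled as inhibition, anchored at 0 by vehicle wells and at 1 by blank wells. Combination Emax is taken as the second-highest inhibition in the matrix, and Bliss excess as the observed combination effect less EA + EB − EA·EB, with EA and EB the single-agent effects.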

A498 (Kidney Carcinoma) = test system: A498 (Kidney Carcinoma)
Outline: as §1

LN-405 (Glioblastoma) = test system: LN-405 (Glioblastoma)
Outline: as §1

[2] = test system: COLO-320-HSR (Colorectal Carcinoma)
Outline: as §1

[3] = test system: NCI-H1693 (Lung Adenocarcinoma)
Outline: as §1

[4] = test system: NCI-H2141 (Small Cell Lung Carcinoma)
Outline: as §1

SMILES	combination Emax [1]	combination Emax (A498 (Kidney Carcinoma))	combination Emax (LN-405 (Glioblastoma))	combination Emax [2]	combination Emax [3]	combination Emax [4]
COc1cccc(OCCCN)c1-c1cc(Nc2cnc(C#N)cn2)n[nH]1 [Prexasertib] + CN(C)CCCOc1ccc(-c2ccc3ncc4c(c3c2)n(C2CCOCC2)c(=O)n4C)cn1 [AZD0156] (first compound max 1 µM, 7x7, partner max 1 µM)	0.77	0.725	0.516	0.691	0.398	0.568
Cc1c2c(nn1C)CSCc1cc(n(C)n1)CSc1cc(c3ccccc3c1)OCCCc1c(C(=O)O)n(C)c3c-2c(Cl)ccc13 [AZD5991] + CC1(C)CCC(CN2CCN(c3ccc(C(=O)NS(=O)(=O)c4ccc(NCC5CCOCC5)c([N+](=O)[O-])c4)c(Oc4cnc5[nH]ccc5c4)c3)CC2)=C(c2ccc(Cl)cc2)C1 [Venetoclax] (first compound max 1 µM, 7x7, partner max 1 µM)	0.938	0.361	0.425	0.841	0.143	0.659
C=CCn1c(=O)c2cnc(Nc3ccc(N4CCN(C)CC4)cc3)nc2n1-c1cccc(C(C)(C)O)n1 [AZD1775] + C[C@@H]1COCCN1C2=NC(=NC(=C2)C3(CC3)[S@](=N)(=O)C)C4=C5C=CNC5=NC=C4 [AZD6738] (first compound max 1 µM, partner max 10 µM)	0.801	0.682	0.464	0.821	0.331	0.675
C=CCn1c(=O)c2cnc(Nc3ccc(N4CCN(C)CC4)cc3)nc2n1-c1cccc(C(C)(C)O)n1 [AZD1775] + O=C(c1cc(Cc2n[nH]c(=O)c3ccccc23)ccc1F)N1CCN(C(=O)C2CC2)CC1 [Olaparib] (first compound max 1 µM, partner max 10 µM)	0.587	0.51	0.176	0.606	0.288	0.528
Cn1cnc2c(F)c(Nc3ccc(Br)cc3Cl)c(C(=O)NOCCO)cc21 [Selumetinib] + C=CCn1c(=O)c2cnc(Nc3ccc(N4CCN(C)CC4)cc3)nc2n1-c1cccc(C(C)(C)O)n1 [AZD1775] (first compound max 10 µM, partner max 1 µM)	0.504	0.408	0.148	0.589	0.428	0.547
COc1cccc(OCCCN)c1-c1cc(Nc2cnc(C#N)cn2)n[nH]1 [Prexasertib] + Cc1cc2ncnn2cc1Nc1ncc2c(n1)n(C1CCOCC1)c(=O)n2C [AZD7648] (first compound max 1 µM, 7x7, partner max 10 µM)	0.789	0.642	0.445	0.669	0.483	0.57
CC1(C)CCC(CN2CCN(c3ccc(C(=O)NS(=O)(=O)c4ccc(NCC5CCOCC5)c([N+](=O)[O-])c4)c(Oc4cnc5[nH]ccc5c4)c3)CC2)=C(c2ccc(Cl)cc2)C1 [Venetoclax] + C=CCn1c(=O)c2cnc(Nc3ccc(N4CCN(C)CC4)cc3)nc2n1-c1cccc(C(C)(C)O)n1 [AZD1775] (first compound max 1 µM, partner max 1 µM)	0.808	0.452	0.326	0.801	0.308	0.792
Cn1cnc2c(F)c(Nc3ccc(Br)cc3Cl)c(C(=O)NOCCO)cc21 [Selumetinib] + CC(C)n1c(=O)n(C)c2cnc3cc(F)c(-c4ccc(OCCCN5CCCCC5)nc4)cc3c21 [AZD1390] (first compound max 10 µM, 7x7, partner max 0.3 µM)	0.109	0.318	0.129	0.181	0.204	0.0858
COc1cccc2c1C(=O)c1c(O)c3c(c(O)c1C2=O)C[C@@](O)(C(=O)CO)C[C@@H]3O[C@H]1C[C@H](N)[C@H](O)[C@H](C)O1 [Doxorubicin] + Cc1cc2ncnn2cc1Nc1ncc2c(n1)n(C1CCOCC1)c(=O)n2C [AZD7648] (first compound max 1 µM, 7x7, partner max 10 µM)	0.87	0.598	0.335	0.464	0.405	0.475
Cc1cc2ncnn2cc1Nc1ncc2c(n1)n(C1CCOCC1)c(=O)n2C [AZD7648] + CN(C)CCCOc1ccc(-c2ccc3ncc4c(c3c2)n(C2CCOCC2)c(=O)n4C)cn1 [AZD0156] (first compound max 10 µM, 7x7, partner max 1 µM)	0.256	0.401	0.164	0.27	0.222	0.229
NC1(C(=O)N[C@@H](CCO)c2ccc(Cl)cc2)CCN(c2ncnc3[nH]ccc23)CC1 [Capivasertib] + CCN(CCO)CCCOc1ccc2c(Nc3cc(CC(=O)Nc4cccc(F)c4)[nH]n3)ncnc2c1 [AZD2811] (first compound max 10 µM, 7x7, partner max 1 µM)	0.915	0.586	0.497	0.174	0.36	0.345
NC1(C(=O)N[C@@H](CCO)c2ccc(Cl)cc2)CCN(c2ncnc3[nH]ccc23)CC1 [Capivasertib] + CC(C)n1c(=O)n(C)c2cnc3cc(F)c(-c4ccc(OCCCN5CCCCC5)nc4)cc3c21 [AZD1390] (first compound max 10 µM, 7x7, partner max 0.3 µM)	0.685	0.542	0.489	0.172	0.315	0.249
CN(C)CCCOc1ccc(-c2ccc3ncc4c(c3c2)n(C2CCOCC2)c(=O)n4C)cn1 [AZD0156] + CCN(CCO)CCCOc1ccc2c(Nc3cc(CC(=O)Nc4cccc(F)c4)[nH]n3)ncnc2c1 [AZD2811] (first compound max 1 µM, 7x7, partner max 1 µM)	0.815	0.172	0.0969	0	0.142	0.289
CN(CCO)CC[C@H](CSc1ccccc1)Nc1ccc(S(=O)(=O)NC(=O)c2ccc(N3CCC([C@@H](O)c4ccccc4-c4ccc(Cl)cc4)CC3)cc2)cc1S(=O)(=O)C(F)(F)F [AZD4320] + CCN(CCO)CCCOc1ccc2c(Nc3cc(CC(=O)Nc4cccc(F)c4)[nH]n3)ncnc2c1 [AZD2811] (first compound max 1 µM, 7x7, partner max 1 µM)	1	0.218	0.363	0.0615	0.221	0.896
Cc1c2c(nn1C)CSCc1cc(n(C)n1)CSc1cc(c3ccccc3c1)OCCCc1c(C(=O)O)n(C)c3c-2c(Cl)ccc13 [AZD5991] + C[C@@H]1COCCN1C2=NC(=NC(=C2)C3(CC3)[S@](=N)(=O)C)C4=C5C=CNC5=NC=C4 [AZD6738] (first compound max 1 µM, 7x7, partner max 10 µM)	0.752	0.621	0.668	0.97	0.432	0.628
Cn1cnc2c(F)c(Nc3ccc(Br)cc3Cl)c(C(=O)NOCCO)cc21 [Selumetinib] + C[C@@H]1COCCN1C2=NC(=NC(=C2)C3(CC3)[S@](=N)(=O)C)C4=C5C=CNC5=NC=C4 [AZD6738] (first compound max 10 µM, 7x7, partner max 10 µM)	0.32	0.57	0.405	0.371	0.364	0.409
C[C@@H](c1ccc2nccn2c1)n1nnc2ncc(-c3cnn(C)c3)nc21 [Savolitinib] + CC1(C)CCC(CN2CCN(c3ccc(C(=O)NS(=O)(=O)c4ccc(NCC5CCOCC5)c([N+](=O)[O-])c4)c(Oc4cnc5[nH]ccc5c4)c3)CC2)=C(c2ccc(Cl)cc2)C1 [Venetoclax] (first compound max 1 µM, 7x7, partner max 1 µM)	0.525	0.172	0.173	0.213	0.0814	0.198
CCc1c2c(nc3ccc(O)cc13)-c1cc3c(c(=O)n1C2)COC(=O)[C@]3(O)CC [SN-38] + CN(C)CCCOc1ccc(-c2ccc3ncc4c(c3c2)n(C2CCOCC2)c(=O)n4C)cn1 [AZD0156] (first compound max 0.3 µM, 7x7, partner max 1 µM)	0.821	0.5	0.259	0.284	0.474	0.451
CC1(C)CCC(CN2CCN(c3ccc(C(=O)NS(=O)(=O)c4ccc(NCC5CCOCC5)c([N+](=O)[O-])c4)c(Oc4cnc5[nH]ccc5c4)c3)CC2)=C(c2ccc(Cl)cc2)C1 [Venetoclax] + CN(C)CCCOc1ccc(-c2ccc3ncc4c(c3c2)n(C2CCOCC2)c(=O)n4C)cn1 [AZD0156] (first compound max 1 µM, 7x7, partner max 1 µM)	0.604	0.263	0.306	0.198	0.221	0.148
Cc1cc2ncnn2cc1Nc1ncc2c(n1)n(C1CCOCC1)c(=O)n2C [AZD7648] + C[C@@H]1COCCN1C2=NC(=NC(=C2)C3(CC3)[S@](=N)(=O)C)C4=C5C=CNC5=NC=C4 [AZD6738] (first compound max 10 µM, 7x7, partner max 10 µM)	0.214	0.585	0.43	0.616	0.294	0.578
CC(=O)c1c(C)c2cnc(Nc3ccc(N4CCNCC4)cn3)nc2n(C2CCCC2)c1=O [Palbociclib] + Cn1cnc2c(F)c(Nc3ccc(Br)cc3Cl)c(C(=O)NOCCO)cc21 [Selumetinib] (first compound max 10 µM, 7x7, partner max 10 µM)	0.231	0.372	0.103	0.177	0.38	0.139
CS(=O)(=O)CCNCc1ccc(-c2ccc3ncnc(Nc4ccc(OCc5cccc(F)c5)c(Cl)c4)c3c2)o1 [Lapatinib] + C[C@@H](Oc1cc(-c2cnn(C3CCNCC3)c2)cnc1N)c1c(Cl)ccc(F)c1Cl [Crizotinib] (first compound max 10 µM, 7x7, partner max 10 µM)	0.924	0.926	0.493	0.894	0.883	0.795
CC1(C)CCC(CN2CCN(c3ccc(C(=O)NS(=O)(=O)c4ccc(NCC5CCOCC5)c([N+](=O)[O-])c4)c(Oc4cnc5[nH]ccc5c4)c3)CC2)=C(c2ccc(Cl)cc2)C1 [Venetoclax] + CCN(CCO)CCCOc1ccc2c(Nc3cc(CC(=O)Nc4cccc(F)c4)[nH]n3)ncnc2c1 [AZD2811] (first compound max 1 µM, 7x7, partner max 1 µM)	0.927	0.216	0.276	0.156	0.182	0.482
